In PubChem BioAssay AID330 (DTP/NCI, 2004):
Where “and” joins values, the source holds several entries; their conditions need not be identical. Identical values can stand only once. Inconclusive results and toxic doses are left out. Rule for the calls: active = survival T/C of 150% or more; inactive = T/C below 125% in these data.

Tested on: P388 leukemia ip, CD2F1 mice, survival T/C
Experiment: NCI In Vivo Anticancer Drug Screen. Data for tumor model P388 Leukemia (intraperitoneal) in CD2F1 (CDF1) mice
Settings: endpoint: median survival time, higher = longer survival
Procedure, shortened: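 Mice carrying the transplanted tumor received test compound or vehicle. Survival was recorded in each group, and the value is the treated-group measurement divided by that of the vehicle-treated control group.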

[1] = dose: 60.0 mg/kg/injection, schedule: Q01DX005 (ip), vehicle: Klucel (hydroxypropylcellulose) (HPC)
[2] = dose: 120.0 mg/kg/injection, schedule: Q01DX005 (ip), vehicle: Klucel (hydroxypropylcellulose) (HPC)
[3] = dose: 240.0 mg/kg/injection, schedule: Q01DX005 (ip), vehicle: Klucel (hydroxypropylcellulose) (HPC)
[4] = dose: 50.0 mg/kg/injection, schedule: Q01DX009 (ip), vehicle: Klucel (hydroxypropylcellulose) (HPC)
[5] = dose: 12.5 mg/kg/injection, schedule: Q04DX003 (ip), vehicle: Klucel (hydroxypropylcellulose) (HPC)
[6] = dose: 12.5 mg/kg/injection, schedule: Q01DX009 (ip), vehicle: Klucel (hydroxypropylcellulose) (HPC)
[7] = dose: 50.0 mg/kg/injection, schedule: Q01DX009 (ip), vehicle: saline with Tween-80
[8] = dose: 100.0 mg/kg/injection, schedule: Q01DX009 (ip), vehicle: saline with Tween-80
[9] = dose: 200.0 mg/kg/injection, schedule: Q01DX009 (ip), vehicle: saline with Tween-80

Measured: T/C

CCc1ccc2nc3ccccc3c(NCCCCCCNc3c4ccccc4nc4ccc(CC)cc34)c2c1
inactive: dose: 0.62 mg/kg/injection, schedule: Q01DX009 (ip), vehicle: other 100 % of control | dose: 1.25 mg/kg/injection, schedule: Q01DX009 (ip), vehicle: other 114 % of control | dose: 2.5 mg/kg/injection, schedule: Q01DX009 (ip), vehicle: other 105 % of control | dose: 5.0 mg/kg/injection, schedule: Q01DX009 (ip), vehicle: other 116 % of control | dose: 10.0 mg/kg/injection, schedule: Q01DX009 (ip), vehicle: other 124 % of control

O=S(=O)(c1ccccc1)N1CC2(CN(S(=O)(=O)c3ccccc3)c3ccccc31)CN(S(=O)(=O)c1ccccc1)c1ccccc1N(S(=O)(=O)c1ccccc1)C2
inactive: dose: 100.0 mg/kg/injection, schedule: Q01DX001 (ip), vehicle: saline with Tween-80 90 % of control | dose: 200.0 mg/kg/injection, schedule: Q01DX001 (ip), vehicle: saline with Tween-80 87 % of control | dose: 400.0 mg/kg/injection, schedule: Q01DX001 (ip), vehicle: saline with Tween-80 88 % of control

O=C(O)CCC(=O)O
inactive: dose: 10.0 mg/kg/injection, schedule: Q01DX009 (ip), vehicle: water 90 % of control | dose: 20.0 mg/kg/injection, schedule: Q01DX009 (ip), vehicle: water 99 % of control and 109 % of control | dose: 40.0 mg/kg/injection, schedule: Q01DX009 (ip), vehicle: water 98 % of control and 94 % of control | dose: 80.0 mg/kg/injection, schedule: Q01DX009 (ip), vehicle: water 96 % of control and 91 % of control | dose: 160.0 mg/kg/injection, schedule: Q01DX009 (ip), vehicle: water 101 % of control and 102 % of control

NC1=C(O)C(=O)C(c2ccc(C3OC(N)=C(O)C3=O)cc2)O1 (stereo not drawn)
inactive: [1] 101 % of control | [2] 104 % of control | [3] 96 % of control

Cc1ccc(Cc2nnc(C)c3c(C)[nH]nc23)cc1
inactive: [4] 100 % of control | dose: 100.0 mg/kg/injection, schedule: Q01DX009 (ip), vehicle: Klucel (hydroxypropylcellulose) (HPC) 95 % of control | dose: 200.0 mg/kg/injection, schedule: Q01DX009 (ip), vehicle: Klucel (hydroxypropylcellulose) (HPC) 93 % of control

N#CN=[N+]([O-])c1ccccc1[N+](=O)[O-]
inactive: dose: 6.25 mg/kg/injection, schedule: Q04DX003 (ip), vehicle: Klucel (hydroxypropylcellulose) (HPC) 110 % of control | [5] 106 % of control

Cc1nc(N=C(N)N)nc2ccc3ccccc3c12
inactive: dose: 3.13 mg/kg/injection, schedule: Q01DX009 (ip), vehicle: Klucel (hydroxypropylcellulose) (HPC) 95 % of control | dose: 6.25 mg/kg/injection, schedule: Q01DX009 (ip), vehicle: Klucel (hydroxypropylcellulose) (HPC) 104 % of control | [6] 93 % of control

C#CC1(NC(=O)c2ccccc2C(=O)Nc2cccc(C(F)(F)F)c2)CCCCC1
inactive: [7] 97 % of control | [8] 89 % of control | [9] 89 % of control

COC(=O)C1=C/CCCN/C=C\1C(=O)OC
inactive: dose: 100.0 mg/kg/injection, schedule: Q04DX003 (ip), vehicle: Klucel (hydroxypropylcellulose) (HPC) 97 % of control | dose: 200.0 mg/kg/injection, schedule: Q04DX003 (ip), vehicle: Klucel (hydroxypropylcellulose) (HPC) 97 % of control | dose: 400.0 mg/kg/injection, schedule: Q04DX003 (ip), vehicle: Klucel (hydroxypropylcellulose) (HPC) 98 % of control

CCOC(=O)c1ccc(NC(=O)N2CCCCC2C)cc1 (stereo not drawn)
inactive: [1] 104 % of control | [2] 89 % of control | [3] 97 % of control

CC1=C(C)C(=O)O[C@@H]([C@](C)(O)[C@]2(O)CC[C@@]3(O)[C@@H]4C[C@H]5O[C@]56CC=CC(=O)[C@]6(C)[C@H]4CC[C@]23C)C1
inactive: [6] 109 % of control and 110 % of control | [5] 122 % of control | dose: 25.0 mg/kg/injection, schedule: Q01DX009 (ip), vehicle: Klucel (hydroxypropylcellulose) (HPC) 107 % of control and 124 % of control | [4] 100 % of control | dose: 50.0 mg/kg/injection, schedule: Q04DX003 (ip), vehicle: Klucel (hydroxypropylcellulose) (HPC) 124 % of control

COc1ccc(CSC(=S)Nc2ccc(Cl)c(C)c2)cc1
inactive: dose: 50.0 mg/kg/injection, schedule: Q01DX009 (ip), vehicle: suspension in saline 111 % of control | dose: 100.0 mg/kg/injection, schedule: Q01DX009 (ip), vehicle: suspension in saline 109 % of control | dose: 200.0 mg/kg/injection, schedule: Q01DX009 (ip), vehicle: suspension in saline 106 % of control

Nn1cnc2c(nnn2Cc2ccccc2)c1=O
inactive: dose: 100.0 mg/kg/injection, schedule: Q04DX002 (ip), vehicle: saline with Tween-80 104 % of control | dose: 200.0 mg/kg/injection, schedule: Q04DX002 (ip), vehicle: saline with Tween-80 100 % of control

c1ccc2c(Oc3c4ccccc4nc4ccccc34)c3ccccc3nc2c1
inactive: dose: 50.0 mg/kg/injection, schedule: Q01DX005 (ip), vehicle: saline with Tween-80 95 % of control | dose: 100.0 mg/kg/injection, schedule: Q01DX005 (ip), vehicle: saline with Tween-80 88 % of control | dose: 200.0 mg/kg/injection, schedule: Q01DX005 (ip), vehicle: saline with Tween-80 90 % of control

Oc1c(Cl)cc(Cl)cc1/C=N/Nc1ccc2ccccc2n1
inactive: dose: 50.0 mg/kg/injection, schedule: Q04DX003 (ip), vehicle: saline with Tween-80 89 % of control | dose: 100.0 mg/kg/injection, schedule: Q04DX003 (ip), vehicle: saline with Tween-80 94 % of control | dose: 200.0 mg/kg/injection, schedule: Q04DX003 (ip), vehicle: saline with Tween-80 100 % of control

CCCC(CCC)NCC(O)c1cc(-c2ccc(C(F)(F)F)cc2)nc(C(F)(F)F)c1 (stereo not drawn)
inactive: dose: 12.5 mg/kg/injection, schedule: Q01DX009 (ip), vehicle: saline with Tween-80 102 % of control | dose: 25.0 mg/kg/injection, schedule: Q01DX009 (ip), vehicle: saline with Tween-80 107 % of control | [7] 100 % of control and 91 % of control

COC(=O)C[C@H]1[C@]2(C)C[C@@]34OC5(C)O[C@]6([C@@H]7CC(=O)OC(c8ccoc8)[C@]7(C)[C@@H](OC(C)=O)C[C@]6(O5)[C@@]13C)[C@H](OC(=O)C(C)C)[C@]4(O)[C@H]2OC(=O)C(C)C (stereo partly drawn)
inactive: dose: 0.37 mg/kg/injection, schedule: Q01DX009 (ip), vehicle: Klucel (hydroxypropylcellulose) (HPC) 95 % of control | dose: 0.75 mg/kg/injection, schedule: Q01DX009 (ip), vehicle: Klucel (hydroxypropylcellulose) (HPC) 94 % of control | dose: 1.5 mg/kg/injection, schedule: Q01DX009 (ip), vehicle: Klucel (hydroxypropylcellulose) (HPC) 98 % of control | dose: 3.0 mg/kg/injection, schedule: Q01DX009 (ip), vehicle: Klucel (hydroxypropylcellulose) (HPC) 93 % of control

O=C(Nc1ccc(Nc2ccc3c(c2)C(=O)c2ccccc2C3=O)c2c1C(=O)c1ccccc1C2=O)c1ccccc1
inactive: dose: 50.0 mg/kg/injection, schedule: Q01DX005 (ip), vehicle: Klucel (hydroxypropylcellulose) (HPC) 92 % of control | dose: 100.0 mg/kg/injection, schedule: Q01DX005 (ip), vehicle: Klucel (hydroxypropylcellulose) (HPC) 91 % of control | dose: 200.0 mg/kg/injection, schedule: Q01DX005 (ip), vehicle: Klucel (hydroxypropylcellulose) (HPC) 88 % of control

COc1ccc(CCN)cc1OC
inactive: [7] 100 % of control | [8] 100 % of control | dose: 100.0 mg/kg/injection, schedule: Q01DX009 (ip), vehicle: saline 108 % of control | [9] 100 % of control | dose: 200.0 mg/kg/injection, schedule: Q01DX009 (ip), vehicle: saline 106 % of control

COC1OC2COC(c3ccccc3)OC2C2OC(c3ccccc3)OC12 (stereo not drawn)
inactive: dose: 1.56 mg/kg/injection, schedule: Q01DX009 (ip), vehicle: other 116 % of control | dose: 3.13 mg/kg/injection, schedule: Q01DX009 (ip), vehicle: other 106 % of control | dose: 6.25 mg/kg/injection, schedule: Q01DX009 (ip), vehicle: other 119 % of control | dose: 12.5 mg/kg/injection, schedule: Q01DX009 (ip), vehicle: other 113 % of control | dose: 25.0 mg/kg/injection, schedule: Q01DX009 (ip), vehicle: other 113 % of control and 87 % of control | dose: 50.0 mg/kg/injection, schedule: Q01DX009 (ip), vehicle: other 91 % of control | dose: 100.0 mg/kg/injection, schedule: Q01DX009 (ip), vehicle: other 91 % of control | dose: 200.0 mg/kg/injection, schedule: Q01DX009 (ip), vehicle: other 89 % of control | dose: 400.0 mg/kg/injection, schedule: Q01DX009 (ip), vehicle: other 92 % of control
